Results on two molecules are retold here after US12286389B2, “Crystalline form a of 2, 2-bis(4-fluorophenyl)-2-phenylacetamide and preparation method therefor and application thereof” (SHENZHEN RENTAI PHARMATECH LTD., priority 2019, dated 2025).

Holding throughout (type): physicochemical
Data set [1] can be described thus: High-humidity stability 2 of the crystal form (XRPD comparison with day 0). Particulars: 75% RH, 40° C., XRPD vs day 0. As for the experimental part: (4) High-humidity stability 2: the test sample is placed in an environment having a humidity of 75% RH and a temperature of 40° C. for 5 days and 10 days, respectively, to test the stability of the crystal form, which are compared with XRPD pattern of the crystal form A on day 0.
(4) High-humidity stability 2: by referring to the same method of high-humidity stability test 2 for crystal A, the test sample is placed in an environment having a humidity of 75% RH and a temperature of 40° C. for 5 days to test the stability of the crystal form, which are compared with XRPD pattern of the crystal form I on day 0.

Data set [2] can be described thus: High-temperature stability of the crystal form (XRPD comparison with day 0). Particulars: 60° C., XRPD vs day 0. On the procedure:
(2) High-temperature stability: the test sample is placed at a temperature of 60° C. for 5 days and 10 days, respectively, to test the stability of the crystal form, which are compared with XRPD pattern of the crystal form A on day 0.
(2) High-temperature stability: by referring to the same method of high-temperature stability test for crystal A, the test sample is placed at a temperature of 60° C. for 5 days to test the stability of the crystal form, which is compared with XRPD pattern of the crystal form I on day 0.

Data set [3] can be described thus: Light stability of the crystal form (XRPD comparison with day 0). Particulars: 25° C., 4500 Lux, XRPD vs day 0. On the procedure: (1) Light stability: the test sample is placed in an environment having a temperature of 25° C. and a light condition of 4500 Lux for 5 days and 10 days, respectively, to test the stability of the crystal form, which are compared with XRPD pattern of the crystal form A on day 0.
(1) Light stability: by referring to the same method of light stability test for crystal A, the test sample is placed in an environment having a temperature of 25° C. and a light condition of 4500 Lux for 5 days to test the stability of the crystal form, which is compared with XRPD pattern of the crystal form I on day 0.

Data set [4] in a line: Hygroscopicity study by dynamic vapor sorption (DVS). To be noted: 25° C., RH 10% per step, 10 min per step. As for the experimental part: Dynamic Vapor Sorption DVS
Model: DVS intrinsic (SMS, British);
Method: 25° C., relative humidity is stepped up at a rate of 10%, the judgment standard is change in moisture content is <0.02% over a 10-minute period.
Dynamic vapor sorption (DVS) experiment are performed for crystal form A in Example 2 to obtain DVS curves under the following conditions: the temperature is 25° C., the relative humidity (RH) is stepped up from RH 0 to RH 90% at a rate of RH 10% per step, with 10 min for each step to reach equilibrium.

Data set [5] in a line: High-humidity stability 1 of the crystal form (XRPD comparison with day 0). Particulars: 92.5% RH, 25° C., XRPD vs day 0. As for the experimental part: (3) High-humidity stability 1: the test sample is placed in an environment having a humidity of 92.5% RH and a temperature of 25° C. for 5 days and 10 days, respectively, to test the stability of the crystal form, which are compared with XRPD pattern of the crystal form A on day 0.
(3) High-humidity stability 1: by referring to the same method of high-humidity stability test 1 for crystal A, the test sample is placed in an environment having a humidity of 92.5% RH and a temperature of 25° C. for 5 days to test the stability of the crystal form, which are compared with XRPD pattern of the crystal form I on day 0.

As to `NC(=O)C(c1ccccc1)(c1ccc(F)cc1)c1ccc(F)cc1` [crystal form A, 2,2-bis(4-fluorophenyl)-2-phenylacetamide], the “high-humidity stability 2 of the crystal form” value in data set [1] (5 days and 10 days) is recorded as “good high-humidity stability”. In addition, in data set [2] (5 days and 10 days), the “high-temperature stability of the crystal form” value was “good high-temperature stability”. The “light stability of the crystal form” value in data set [3] (5 days and 10 days) is on record as “good light stability”. In addition, the “weight change in each step of 10 min” value in data set [4] is “less than 0.02%”. The “high-humidity stability 1 of the crystal form” value in data set [5] (5 days and 10 days) is listed as “good high-humidity stability”.

Regarding `NC(=O)C(c1ccccc1)(c1ccc(F)cc1)c1ccc(F)cc1` [crystal form I, 2,2-bis(4-fluorophenyl)-2-phenylacetamide, reference compound], the “high-humidity stability 2 of the crystal form” value in data set [1] (5 days) is “unstable under high humidity and easily transforms into crystal form A”. Besides, in data set [2] (5 days), the “high-temperature stability of the crystal form” value was “unstable under high temperatures and easily transforms into crystal form A”. For the same molecule, the “light stability of the crystal form” value in data set [3] (5 days) was “unstable under lights and easily transforms into crystal form A”. In addition, the “high-humidity stability 1 of the crystal form” value in data set [5] (5 days) was “unstable under high humidity and easily transforms into crystal form A”.
